Experimental data as given in patent US20140199380A1, “PHARMACEUTICAL COMPOSITION COMPRISING AN ALGAE ADAPTED TO INCREASE THE EFFICACY OF AN ENZYMATIC INHIBITOR” (priority 2010, published 2014).

Tests used:
[1] = Plasma concentration of Tadalafil after a single dose (pharmacokinetics, FIG. 1); conditions: male, human, in vivo, 20 mg
Protocol: In both cases, a single dose of a pharmaceutical composition equivalent to 20 mg of tadalafil was administered to a test population of otherwise healthy subjects suffering from ED and the plasma concentration of Tadalafil was measured at intervals following the administration.

[2] = tadalafil as normally administered, typical value; cited from earlier work

For `CN1CC(=O)N2[C@H](c3ccc4c(c3)OCO4)c3[nH]c4ccccc4c3C[C@@H]2C1=O` [Tadalafil, (6R,12aR)-6-(1,3-benzodioxol-5-yl)-2,3,6,7,12,12a-hexahydro-2-methylpyrazino[1′,2′:1,6]pyrido[3,4-b]indole-1,4-dione], the half-life [1] is given as 17.5 h and the “Half-life in the body” value [2] is given as 17.5 h.
